Test results: PMC7384767 (Journal of natural products, 2020)

Tested on: M. tuberculosis H37Rv
Experiment: Microplate Alamar Blue assay
Format: cell-based
Conditions: result in words

C=CC(C)(C)n1cc(C[C@@H]2NC(=O)[C@H](CC(C)C)N(C)C2=O)c2ccccc21 [Compound 9, rufomyazine]
anti-TB activity: did not show anti-TB activity
